According to patent US10858360B2, “Tricyclic gyrase inhibitors” (priority 2011, dated 2020):
≈ marks a conversion by molar mass, not a printed value.

Tests used:
[1] = test system: S. aureus ATCC 13709; experiment: MIC, S. aureus ATCC 13709 (Alamar Blue broth microdilution); format: cell-based; conditions: Alamar Blue read after overnight incubation at 35° C.; for MIC Sa: S. aureus; for MIC: Staphylococcus aureus, ATCC13709, S. aureus
[2] = test system: E. coli ATCC 25922; experiment: MIC, E. coli ATCC 25922; format: cell-based; conditions: Alamar Blue read after overnight incubation at 35° C.; for MIC Ec: E. coli; for MIC: Escherichia coli, ATCC25922, E. coli

CNc1cc(F)cc2c1[nH]c1nc(Oc3cnc(C)nc3)nc(N3C4CCC3CC(N)C4)c12 (stereo not shown) [4.091]
MIC Sa [1]: ≤0.5 µg/mL | MIC Ec [2]: 1 µg/mL (≈ 2.23 µM)

CNc1cc(F)cc2c1[nH]c1nc(Oc3cnc(C)nc3)nc(-c3cncc(N)c3)c12 [4.450]
MIC [1]: ≤ 0.5 µg/mL | MIC [2]: 2 µg/mL (≈ 4.8 µM)

CNc1cccc2c1[nH]c1nc(Oc3cnc(C)nc3)nc(N3CCC4(CC4N)C3)c12 (stereo not shown) [3.42]
MIC [1]: ≤ 0.5 µg/mL | MIC [2]: 2 µg/mL (≈ 4.8 µM)

CNc1cc(F)cc2c1[nH]c1nc(Oc3cnc(C)nc3)nc(N3C[C@H]4CCC(N)[C@@]4(C)C3)c12 (stereo partly shown) [4.099]
MIC Sa [1]: ≤0.5 µg/mL | MIC Ec [2]: 4 µg/mL (≈ 8.65 µM)

CNc1cc(F)cc2c1[nH]c1nc(Oc3ccc4c(c3)C(=O)NC43CC3)nc(N3CC4(CCC4N)C3)c12 (stereo not shown) [4.380]
MIC Sa [1]: 4 µg/mL (≈ 8.01 µM) | MIC Ec [2]: 16 µg/mL (≈ 32 µM)

CNc1cccc2c1[nH]c1nc(Oc3ccc4nccnc4c3)nc(N3CC4C(N)C4C3)c12 (stereo not shown) [3.31]
MIC [1]: 2 µg/mL (≈ 4.56 µM) | MIC [2]: 8 µg/mL (≈ 18.2 µM)

CNc1cc(F)cc2c1[nH]c1nc(Oc3cncnc3)nc(N3CCC4CNC4C3)c12 (stereo not shown) [4.018]
MIC [1]: ≤ 0.5 µg/mL | MIC [2]: ≤ 0.5 µg/mL

CNc1cccc2c1[nH]c1nc(Oc3cncnc3)nc(N3CCC(C(N)=O)C3)c12 (stereo not shown) [3.17]
MIC [1]: 2 µg/mL (≈ 4.95 µM) | MIC [2]: > 16 µg/mL

CNc1cccc2c1[nH]c1nc(Oc3cnc4ccoc4c3)nc(N3CC4C(N)C4C3)c12 (stereo not shown) [3.23]
MIC [1]: ≤ 0.5 µg/mL | MIC [2]: 2 µg/mL (≈ 4.68 µM)

CNc1cccc2c1[nH]c1nc(Sc3cnc4cccnc4c3)nc(N3CCC(C(O)c4cccs4)CC3)c12 (stereo not shown) [1.70]
MIC [1]: 1 µg/mL (≈ 1.81 µM) | MIC [2]: > 32 µg/mL

CNc1cc(F)cc2c1[nH]c1nc(Oc3cnc(C)nc3)nc(N3CC4(CCN4)C3)c12 [4.120]
MIC Sa [1]: ≤0.5 µg/mL | MIC Ec [2]: 1 µg/mL (≈ 2.38 µM)

CNc1cc(F)cc2c1[nH]c1nc(Oc3cnc(C(C)(C)C)nc3)nc(N3C[C@H](N)C4(CC4)C3)c12 [4.315]
MIC [1]: ≤ 0.5 µg/mL | MIC [2]: ≤ 0.5 µg/mL

CNc1cc(F)cc2c1[nH]c1nc(Oc3cnc(N)nc3)nc(N3CCC4(CC4N)C3)c12 (stereo not shown) [4.173]
MIC [1]: ≤ 0.5 µg/mL | MIC [2]: 1 µg/mL (≈ 2.3 µM)

COc1cccc2c1[nH]c1nc(Sc3cnc4ccc[n+]([O-])c4c3)nc(N3CC(N)C3)c12 [1.77]
MIC [1]: 2 µg/mL (≈ 4.49 µM) | MIC [2]: > 64 µg/mL

CNc1cccc2c1[nH]c1nc(Oc3cncnc3)nc(N3CC4C(N)C4C3)c12 (stereo not shown) [3.28]
MIC [1]: 1 µg/mL (≈ 2.57 µM) | MIC [2]: 2 µg/mL (≈ 5.15 µM)

CNc1ncnc2c1[nH]c1nc(Oc3cncc(F)c3)nc(N3CC(N)C4(CC4)C3)c12 (stereo not shown) [7.06]
MIC [1]: 8 µg/mL (≈ 19 µM) | MIC [2]: 64 µg/mL (≈ 152 µM)

CNc1cc(F)cc2c1[nH]c1nc(Oc3cncnc3)nc(N3CC4CC4(CN)C3)c12 (stereo not shown) [4.027]
MIC [1]: ≤ 0.5 µg/mL | MIC [2]: 1 µg/mL (≈ 2.38 µM)

CNc1cccc2c1[nH]c1nc(Oc3ccc(C(=O)OC)nc3)nc(N3CC4C(N)C4C3)c12 (stereo not shown) [3.21]
MIC [1]: ≤ 0.5 µg/mL | MIC [2]: 1 µg/mL (≈ 2.24 µM)

CNc1cc(F)cc2c1[nH]c1nc(Oc3cncc(C(N)=O)c3)nc(N3CC4C(N)C4C3)c12 (stereo not shown) [4.237]
MIC [1]: ≤ 0.5 µg/mL | MIC [2]: 2 µg/mL (≈ 4.46 µM)

CNc1cc(F)cc2c1[nH]c1nc(Oc3cnc(C)nc3)nc(N3CC4CCC(N)CC4C3)c12 (stereo not shown) [4.092]
MIC Sa [1]: ≤0.5 µg/mL | MIC Ec [2]: 2 µg/mL (≈ 4.32 µM)

CNc1cc(F)cc2c1[nH]c1nc(Oc3cncc(Cl)c3)nc(N3CC(N)C4(CC4)C3)c12 (stereo not shown) [4.273]
MIC Sa [1]: ≤0.5 µg/mL | MIC Ec [2]: 2 µg/mL (≈ 4.41 µM)

CNc1cccc2c1[nH]c1nc(Oc3cncnc3)nc(N3CCC4(CNC4)C3)c12 [3.65]
MIC [1]: 8 µg/mL (≈ 19.9 µM) | MIC [2]: 64 µg/mL (≈ 159 µM)

CNc1cc(F)cc2c1[nH]c1nc(Oc3cnc(CO)nc3)nc(N3CC(N)C4(CC4)C3)c12 (stereo not shown) [4.387]
MIC Sa [1]: ≤0.5 µg/mL | MIC Ec [2]: ≤0.5 µg/mL

CNc1cc(F)cc2c1[nH]c1nc(Oc3cnc(C4CC4)nc3)nc(N3CC4CC(N)C4C3)c12 (stereo not shown) [4.240]
MIC [1]: ≤ 0.5 µg/mL | MIC [2]: ≤ 0.5 µg/mL

CNc1cccc2c1[nH]c1nc(Oc3cncc(-c4nnn(C)n4)c3)nc(N3CC4C(N)C4C3)c12 (stereo not shown) [3.24]
MIC [1]: 2 µg/mL (≈ 4.26 µM) | MIC [2]: 8 µg/mL (≈ 17 µM)

CNc1cc(F)cc2c1[nH]c1nc(Oc3cnc(C)nc3)nc(N3CC4[C@H](N)C[C@]4(C)C3)c12 (stereo partly shown) [4.146]
MIC [1]: ≤ 0.5 µg/mL | MIC [2]: ≤ 0.5 µg/mL

CNc1cc(F)cc2c1[nH]c1nc(Oc3cnc4cccnc4c3)nc(N3CC4(CC4N)C3)c12 (stereo not shown) [4.042]
MIC Sa [1]: ≤0.5 µg/mL | MIC Ec [2]: ≤0.5 µg/mL

CNc1cc(F)cc2c1[nH]c1nc(Oc3cnc(N)nc3)nc(N3C[C@H]4CC[C@@H](N)[C@H]4C3)c12 [4.186]
MIC [1]: ≤ 0.5 µg/mL | MIC [2]: 2 µg/mL (≈ 4.45 µM)

CNc1cc(F)cc2c1[nH]c1nc(Oc3cnc(C)nc3)nc(N3CCC4(CCNC4)C3)c12 (stereo not shown) [4.126]
MIC Sa [1]: ≤0.5 µg/mL | MIC Ec [2]: 2 µg/mL (≈ 4.46 µM)

CNc1cc(F)cc2c1[nH]c1nc(Oc3cnc(C)nc3)nc(N3CC4CC(N)C3C4)c12 (stereo not shown) [4.148]
MIC [1]: ≤ 0.5 µg/mL | MIC [2]: 4 µg/mL (≈ 9.21 µM)

CNc1cc(F)cc2c1[nH]c1nc(Oc3cncc(C)c3)nc(N3CC4CC(N)C4C3)c12 (stereo not shown) [4.303]
MIC [1]: ≤ 0.5 µg/mL | MIC [2]: ≤ 0.5 µg/mL

CCc1ncc(Oc2nc(N3CC4CC4(CN)C3)c3c(n2)[nH]c2c(NC)cc(F)cc23)cn1 (stereo not shown) [4.261]
MIC [1]: ≤ 0.5 µg/mL | MIC [2]: 1 µg/mL (≈ 2.23 µM)
